Tests used:
green foxtail [1] = experiment: Test Example 4: herbicidal effect by soil treatment (Table 19, symbol G); format: in vivo, green foxtail (Setaria viridis); conditions: amount of applied herbicide 320 g/ha
Outline: (§1)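 Scoring uses the grading scale of an earlier test, three weeks post-application. Treatment consists of spraying a diluted emulsion formulation across the surface of sterilized diluvial soil in which seeds are buried near 1.5 cm deep; boxes are kept in a greenhouse between 25° C. and 30° C.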

lambsquarters [2] = experiment: Test Example 4: herbicidal effect by soil treatment (Table 19, symbol O); format: in vivo, lambsquarters (Chenopodium album); conditions: amount of applied herbicide 320 g/ha
Outline: as §1

Chinese sprangletop = experiment: Test Example 3: herbicidal effect by foliage application, Wagner pot (Table 18, symbol D); format: in vivo, chinese sprangletop (Leptochloa chinensis); conditions: amount of applied herbicide 320 g/ha
Outline: (§2)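 Plants were sown in alluvial soil held under 0.1–0.5 cm standing water and grown 14 days in a greenhouse at 25–30 °C. An emulsifiable formulation, water-diluted to the set dose, was then sprayed onto the foliage, and effects were scored three weeks later using previously defined criteria.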

southern crabgrass [3] = experiment: Test Example 4: herbicidal effect by soil treatment (Table 19, symbol F); format: in vivo, southern crabgrass (Digitaria ciliaris); conditions: amount of applied herbicide 320 g/ha
Outline: as §1

rice flat sedge = experiment: Test Example 3: herbicidal effect by foliage application, Wagner pot (Table 18, symbol E); format: in vivo, rice flat sedge (Cyperus iria); conditions: amount of applied herbicide 320 g/ha
Outline: as §2

persian speedwell [4] = experiment: Test Example 5: herbicidal effect by foliage application, plastic box (Table 20, symbol R); format: in vivo, Persian speedwell (Veronica persica); conditions: foliage application, 320 g/ha, three weeks after application
Outline: (§3)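 Post-emergence foliar test in sterilized diluvial soil. Compound applied as water-diluted emulsion at a predetermined rate to 14-day-old plants; evaluation at three weeks.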

Italian ryegrass [5] = experiment: Test Example 4: herbicidal effect by soil treatment (Table 19, symbol K); format: in vivo, Italian ryegrass (Lolium multiflorum); conditions: amount of applied herbicide 320 g/ha
Outline: as §1

chickweed = experiment: Test Example 4: herbicidal effect by soil treatment (Table 19, symbol P); format: in vivo, common chickweed (Stellaria media); conditions: amount of applied herbicide 320 g/ha
Outline: as §1

false cleavers [6] = experiment: Test Example 4: herbicidal effect by soil treatment (Table 19, symbol Q); format: in vivo, false cleavers (Galium spurium); conditions: amount of applied herbicide 320 g/ha
Outline: as §1

Italian ryegrass [7] = experiment: Test Example 5: herbicidal effect by foliage application, plastic box (Table 20, symbol K); format: in vivo, Italian ryegrass (Lolium multiflorum); conditions: foliage application, 320 g/ha, three weeks after application
Outline: as §3

southern crabgrass [8] = experiment: Test Example 5: herbicidal effect by foliage application, plastic box (Table 20, symbol F); format: in vivo, southern crabgrass (Digitaria ciliaris); conditions: foliage application, 320 g/ha, three weeks after application
Outline: as §3

windgrass [9] = experiment: Test Example 4: herbicidal effect by soil treatment (Table 19, symbol L); format: in vivo, windgrass (Apera spica-venti); conditions: amount of applied herbicide 320 g/ha
Outline: as §1

green foxtail [10] = experiment: Test Example 5: herbicidal effect by foliage application, plastic box (Table 20, symbol G); format: in vivo, green foxtail (Setaria viridis); conditions: foliage application, 320 g/ha, three weeks after application
Outline: as §3

false cleavers [11] = experiment: Test Example 5: herbicidal effect by foliage application, plastic box (Table 20, symbol Q); format: in vivo, false cleavers (Galium spurium); conditions: foliage application, 320 g/ha, three weeks after application
Outline: as §3

velvetleaf [12] = experiment: Test Example 5: herbicidal effect by foliage application, plastic box (Table 20, symbol M); format: in vivo, velvetleaf (Abutilon theophrasti); conditions: foliage application, 320 g/ha, three weeks after application
Outline: as §3

barnyard grass [13] = experiment: Test Example 3: herbicidal effect by foliage application, Wagner pot (Table 18, symbol H); format: in vivo, barnyard grass (Echinochloa crus-galli); conditions: amount of applied herbicide 320 g/ha
Outline: as §2

lambsquarters [14] = experiment: Test Example 5: herbicidal effect by foliage application, plastic box (Table 20, symbol O); format: in vivo, lambsquarters (Chenopodium album); conditions: foliage application, 320 g/ha, three weeks after application
Outline: as §3

wild oat [15] = experiment: Test Example 5: herbicidal effect by foliage application, plastic box (Table 20, symbol I); format: in vivo, wild oat (Avena fatua); conditions: foliage application, 320 g/ha, three weeks after application
Outline: as §3

barnyard grass [16] = experiment: Test Example 4: herbicidal effect by soil treatment (Table 19, symbol H); format: in vivo, barnyard grass (Echinochloa crus-galli); conditions: amount of applied herbicide 320 g/ha
Outline: as §1

windgrass [17] = experiment: Test Example 5: herbicidal effect by foliage application, plastic box (Table 20, symbol L); format: in vivo, windgrass (Apera spica-venti); conditions: foliage application, 320 g/ha, three weeks after application
Outline: as §3

persian speedwell [18] = experiment: Test Example 4: herbicidal effect by soil treatment (Table 19, symbol R); format: in vivo, Persian speedwell (Veronica persica); conditions: amount of applied herbicide 320 g/ha
Outline: as §1

barnyard grass [19] = experiment: Test Example 5: herbicidal effect by foliage application, plastic box (Table 20, symbol H); format: in vivo, barnyard grass (Echinochloa crus-galli); conditions: foliage application, 320 g/ha, three weeks after application
Outline: as §3

velvetleaf [20] = experiment: Test Example 4: herbicidal effect by soil treatment (Table 19, symbol M); format: in vivo, velvetleaf (Abutilon theophrasti); conditions: amount of applied herbicide 320 g/ha
Outline: as §1

blackgrass [21] = experiment: Test Example 4: herbicidal effect by soil treatment (Table 19, symbol J); format: in vivo, blackgrass (Alopecurus myosuroides); conditions: amount of applied herbicide 320 g/ha
Outline: as §1

redroot pigweed = experiment: Test Example 4: herbicidal effect by soil treatment (Table 19, symbol N); format: in vivo, redroot pigweed (Amaranthus retroflexus); conditions: amount of applied herbicide 320 g/ha
Outline: as §1

wild oat [22] = experiment: Test Example 4: herbicidal effect by soil treatment (Table 19, symbol I); format: in vivo, wild oat (Avena fatua); conditions: amount of applied herbicide 320 g/ha
Outline: as §1

blackgrass [23] = experiment: Test Example 5: herbicidal effect by foliage application, plastic box (Table 20, symbol J); format: in vivo, blackgrass (Alopecurus myosuroides); conditions: foliage application, 320 g/ha, three weeks after application
Outline: as §3

Compound: COc1cc(F)ccc1-c1oc2ccccc2c1-c1c(O)c(C)nn(C)c1=O [8-001]
- G: green foxtail, herbicidal effect grade (green foxtail [1]): 0 (Herbicidal rate of 5% or less (almost no effect))
- O: lambsquarters, herbicidal effect grade (lambsquarters [2]): 0 (Herbicidal rate of 5% or less (almost no effect))
- Herbicidal effect on D (Chinese sprangletop), foliage application (Chinese sprangletop): 3 (Herbicidal rate of 40% or more and less than 70%)
- F: southern crabgrass, herbicidal effect grade (southern crabgrass [3]): 0 (Herbicidal rate of 5% or less (almost no effect))
- Herbicidal effect on E (rice flat sedge), foliage application (rice flat sedge): 1 (Herbicidal rate of 5% or more and less than 20%)
- herbicidal effect on persian speedwell (R) (persian speedwell [4]): 4 (Herbicidal rate of 70% or more and less than 90%)
- K: Italian ryegrass, herbicidal effect grade (Italian ryegrass [5]): 0 (Herbicidal rate of 5% or less (almost no effect))
- P: chickweed, herbicidal effect grade (chickweed): 0 (Herbicidal rate of 5% or less (almost no effect))
- Q: false cleavers, herbicidal effect grade (false cleavers [6]): 0 (Herbicidal rate of 5% or less (almost no effect))
- herbicidal effect on Italian ryegrass (K) (Italian ryegrass [7]): 3 (Herbicidal rate of 40% or more and less than 70%)
- herbicidal effect on southern crabgrass (F) (southern crabgrass [8]): 0 (Herbicidal rate of 5% or less (almost no effect))
- L: windgrass, herbicidal effect grade (windgrass [9]): 0 (Herbicidal rate of 5% or less (almost no effect))
- herbicidal effect on green foxtail (G) (green foxtail [10]): 3 (Herbicidal rate of 40% or more and less than 70%)
- herbicidal effect on false cleavers (Q) (false cleavers [11]): 4 (Herbicidal rate of 70% or more and less than 90%)
- herbicidal effect on velvetleaf (M) (velvetleaf [12]): 3 (Herbicidal rate of 40% or more and less than 70%)
- Herbicidal effect on H (barnyard grass), foliage application (barnyard grass [13]): 4 (Herbicidal rate of 70% or more and less than 90%)
- herbicidal effect on lambsquarters (O) (lambsquarters [14]): 3 (Herbicidal rate of 40% or more and less than 70%)
- herbicidal effect on wild oat (I) (wild oat [15]): 3 (Herbicidal rate of 40% or more and less than 70%)
- H: barnyard grass, herbicidal effect grade (barnyard grass [16]): 0 (Herbicidal rate of 5% or less (almost no effect))
- herbicidal effect on windgrass (L) (windgrass [17]): 5 (Herbicidal rate of 90% or more (almost completely withered))
- R: persian speedwell, herbicidal effect grade (persian speedwell [18]): 0 (Herbicidal rate of 5% or less (almost no effect))
- herbicidal effect on barnyard grass (H) (barnyard grass [19]): 3 (Herbicidal rate of 40% or more and less than 70%)
- M: velvetleaf, herbicidal effect grade (velvetleaf [20]): 0 (Herbicidal rate of 5% or less (almost no effect))
- J: blackgrass, herbicidal effect grade (blackgrass [21]): 0 (Herbicidal rate of 5% or less (almost no effect))
- N: redroot pigweed, herbicidal effect grade (redroot pigweed): 0 (Herbicidal rate of 5% or less (almost no effect))
- I: wild oat, herbicidal effect grade (wild oat [22]): 3 (Herbicidal rate of 40% or more and less than 70%)
- herbicidal effect on blackgrass (J) (blackgrass [23]): 0 (Herbicidal rate of 5% or less (almost no effect))
